Results as given in patent US12195482B1 (Arcus Biosciences, Inc., priority 2022, dated 2025).

Legend:
Axl = target: T1, Axl (Homo sapiens, UniProt P30530); experiment: Biochemical potency, HTRF KinEASE-TK kinase assay; parameters: purchased Invitrogen; details: 5 nM AXL, 700 μM ATP
T1 sequence (P30530 26-894): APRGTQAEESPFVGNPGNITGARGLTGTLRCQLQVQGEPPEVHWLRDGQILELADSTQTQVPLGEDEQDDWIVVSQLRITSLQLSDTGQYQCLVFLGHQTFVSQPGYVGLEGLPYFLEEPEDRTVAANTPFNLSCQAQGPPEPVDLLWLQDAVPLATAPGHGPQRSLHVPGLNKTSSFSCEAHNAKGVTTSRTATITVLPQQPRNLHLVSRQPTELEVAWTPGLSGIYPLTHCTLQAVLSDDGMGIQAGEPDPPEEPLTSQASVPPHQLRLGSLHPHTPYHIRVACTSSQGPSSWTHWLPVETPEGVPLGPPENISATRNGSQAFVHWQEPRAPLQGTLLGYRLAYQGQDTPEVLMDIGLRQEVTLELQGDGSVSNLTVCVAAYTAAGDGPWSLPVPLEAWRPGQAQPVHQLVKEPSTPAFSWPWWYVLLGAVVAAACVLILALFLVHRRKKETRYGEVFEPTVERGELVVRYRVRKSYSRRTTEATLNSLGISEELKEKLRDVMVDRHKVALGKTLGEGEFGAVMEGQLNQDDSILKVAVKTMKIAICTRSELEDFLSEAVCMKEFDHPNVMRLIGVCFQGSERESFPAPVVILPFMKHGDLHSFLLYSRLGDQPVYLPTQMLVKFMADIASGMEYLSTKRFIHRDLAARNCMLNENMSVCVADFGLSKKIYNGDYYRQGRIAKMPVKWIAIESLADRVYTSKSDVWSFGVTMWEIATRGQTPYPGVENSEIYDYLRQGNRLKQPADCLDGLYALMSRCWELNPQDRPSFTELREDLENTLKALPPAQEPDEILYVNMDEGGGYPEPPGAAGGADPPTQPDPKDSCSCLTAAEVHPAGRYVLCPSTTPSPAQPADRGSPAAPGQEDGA
Procedure: Measurement of Biochemical Compound Potency of Axl Inhibitors
Purified recombinant human AXL, TYRO3 and MER proteins were purchased from Invitrogen™. 10 nM AXL, 2 nM TYRO3 or MER were incubated with varying concentrations of compounds in 50 mM HEPES, pH 7.4, 10 mM MgCl2, 0.01% BSA, 1 mM DTT and 2% DMSO in a total volume of 20 μl in a 384-well microplate (Corning™ #3640) at RT for 1 h. The AXL, TYRO3 and MER enzymatic reaction was initiated by transferring 10 μl of enzyme and compound mixture into 10 μl of 1.6 μM TK Substrate-biotin (HTRF® KinEASE-TK kit, Cisbio) and 1400 μM ATP pre-incubated in 50 mM HEPES, pH 7.4, 10 mM MgCl2, 0.01% BSA, 1 mM DTT in a 384-well microplate (Corning™ #3640) at RT, giving the final reaction conditions: 5 nM AXL, 1 nM TYRO3 or MER, 800 nM TK Substrate-biotin and 700 μM ATP in 50 mM HEPES, pH 7.4, 10 mM MgCl2, 0.01% BSA, 1 mM DTT and 1% DMSO with varying concentrations of compounds. Following 2 h incubation at RT, the AXL, TYRO3 and MER enzymatic reaction was stopped by transfer of 10 μl of reaction into 10 μl of detection mix (400 nM Streptavidin-XL665, 200-fold dilution TK Antibody-Cryptate and detection buffer, HTRF® KinEASE-TK kit, Cisbio) in a white 384-well microplate (Perkin Elmer, OptiPlate 384). After 1 h incubation at RT, the plate was put into a plate reader (Evision) to read at 665/620 nm (acceptor/donor) for HTRF. The value of the DMSO blank (MIN inhibition=100% activity) was used as a negative control. The positive control was established by adding 5 μl of enzyme and DMSO mixture into 10 μl of detection mix followed by addition of 5 μl of TK Substrate-biotin and ATP mixture (MAX inhibition=0% activity). To calculate the percent activity, Equation 1 was used. Ratio665/620 is the value at a given compound concentration: […]

p-AXL = target: T2, p-AXL (Homo sapiens, UniProt P30530); experiment: Axl phosphorylation inhibition ELISA in HEK293T cells transfected with NanoLuc-tagged AXL; assay type: cell-based; details: 1 h compound incubation, media (OptiMEM)
T2 construct: expressed in transfected cells; host or cells: HEK293T
T2 sequence (P30530 26-894): T1 sequence (P30530 26-894)
Procedure: [formula] Measurement of Axl Phosphorylation Inhibition
The dose-response assays were performed in S-Bio PrimeSurface® 3D culture: Ultra-low Attachment Plates: 384 well, U bottom (#MS-9384UZ) containing 400 nL of 22 serial 2-fold compound dilutions using Bravo and Echo. ELISA assay was performed on Pierce™ streptavidin coated high capacity 384-well white plates (Thermofisher Cat #15505). The plates were coated overnight at 4° C. with 50 μl/well of biotinlyated phospho-tyrosine mouse mAb (Cell Signaling Technology, 9417s).
HEK293T cells were grown in DMEM containing 10% FBS, 1% Pen/Strep, 1% G-Max. A day before the assay, cells were transiently transfected with 6.8 μg of NanoLuc-tagged AXL plasmid DNA and 8 μg of carrier DNA using FuGENE® HD Transfection Reagent (Promega) according to manufacturer's instructions. On the day of the assay, transfected cells were harvested and resuspended in OptiMEM. 70,000 cells/well were added to the compounds containing assay plates. After a gentle mix and a short spin, the plates were incubated at 37° C. After 1 h, the cells were lysed followed by a brief centrifugation and 30 min of shaking at 300 rpm. Meanwhile, the antibody coated plates were brought to room temperature and then were washed ten times in PBS with 0.05% Tween 20 (ELISA-wash buffer). 50 μl/well of cell lysate was transferred to the ELISA plates and shaken for 2 hours. After washing again with the ELISA wash buffer, the samples were diluted with 25 μl of PBS. The captured NanoLuc tagged p-AXL was detected using Nano-Glo® Luciferase Assay System (Promega) and manufacturer's instruction. The luminescence signal was measured using Envision plate reader. IC50 values were determined by fitting the data to a standard 4-parameter logistic equation.

| IC50 (Axl) [nM] | IC50 (p-AXL) [nM] | SMILES |
| --- | --- | --- |
| < 100 | 100 to 1000 | Cc1ccc(N2CCCC2=O)c(-c2ccc(-c3n[nH]c4ncc(-c5ccc6c(c5)CC[C@@H](N5C7COCC5C7)CC6)cc34)cc2)n1 [Example 198, 1-[6-Methyl-2-(4-{5-[(7S)-7-{3-oxa-6-azabicyclo[3.1.1]heptan-6-yl}-6,7,8,9-tetrahydro-5H-benzo[7]annulen-2-yl]-1H-pyrazolo[3,4-b]pyridin-3-yl}phenyl)pyridin-3-yl]pyrrolidin-2-one] |
| < 100 | < 100 | CN1CCOc2ccnc(-c3ccc(-c4n[nH]c5ncc(-c6ccc7c(c6)CC[C@@H](N6C8COCC6C8)CC7)cc45)cc3)c21 [Example 151, 6-[(7S)-2-[3-(4-{4-Methyl-2H,3H,4H-pyrido[4,3-b][1,4]oxazin-5-yl}phenyl)-1H-pyrazolo[3,4-b]pyridin-5-yl]-6,7,8,9-tetrahydro-5H-benzo[7]annulen-7-yl]-3-oxa-6-azabicyclo[3.1.1]heptane] |
| < 100 | 100 to 1000 | Cc1cccc(C#N)c1-c1ccc(-c2c[nH]c3ncc(-c4ccc5c(c4)CC[C@@H](N4C6COCC4C6)CC5)cc23)nc1 [Example 197, 3-Methyl-2-(6-{5-[(7S)-7-{3-oxa-6-azabicyclo[3.1.1]heptan-6-yl}-6,7,8,9-tetrahydro-5H-benzo[7]annulen-2-yl]-1H-pyrrolo[2,3-b]pyridin-3-yl}pyridin-3-yl)benzonitrile] |
| < 100 | < 100 | Cn1c(-c2ccc(-c3c[nH]c4ncc(-c5ccc6c(c5)CC[C@@H](N5C7COCC5C7)CC6)cc34)cc2)cccc1=O [Example 39, 1-Methyl-6-[4-[5-[(7S)-7-(3-oxa-6-azabicyclo[3.1.1]heptan-6-yl)-6,7,8,9-tetrahydro-5H-benzo[7]annulen-3-yl]-1H-pyrrolo[2,3-b]pyridin-3-yl]phenyl]pyridin-2-one] |
| < 100 | 100 to 1000 | Cc1cc(C)c(-c2ccc(-c3n[nH]c4ncc(-c5ccc6c(c5)CC[C@@H](N5C7COCC5C7)CC6)cc34)cc2)cn1 [Example 195, 6-[(7S)-2-{3-[4-(4,6-Dimethylpyridin-3-yl)phenyl]-1H-pyrazolo[3,4-b]pyridin-5-yl}-6,7,8,9-tetrahydro-5H-benzo[7]annulen-7-yl]-3-oxa-6-azabicyclo[3.1.1]heptane] |
| < 100 | < 100 | Cc1ccc(C#N)c(-c2ccc(-c3n[nH]c4ncc(-c5ccc6c(c5)CC[C@@H](N5C7COCC5C7)CC6)cc34)cc2)n1 [Example 70, 6-Methyl-2-(4-{5-[(7S)-7-{3-oxa-6-azabicyclo[3.1.1]heptan-6-yl}-6,7,8,9-tetrahydro-5H-benzo[7]annulen-2-yl]-1H-pyrazolo[3,4-b]pyridin-3-yl}phenyl)pyridine-3-carbonitrile] |
| < 100 | < 100 | Cc1cccnc1-c1cnc(-c2c[nH]c3ncc(-c4ccc5c(c4)CC[C@@H](N4C6COCC4C6)CC5)cc23)nc1 [Example 37, 6-[(7S)-3-[3-[5-(3-Methylpyridin-2-yl)pyrimidin-2-yl]-1H-pyrrolo[2,3-b]pyridin-5-yl]-6,7,8,9-tetrahydro-5H-benzo[7]annulen-7-yl]-3-oxa-6-azabicyclo[3.1.1]heptane] |
| < 100 | > 1000 | Cc1cccnc1-c1ccc(-c2c[nH]c3nnc(-c4ccc5c(c4)CC[C@@H](N4C6COCC4C6)CC5)cc23)cc1 [Example 36, 6-[(7S)-3-[5-[4-(3-Methylpyridin-2-yl)phenyl]-7H-pyrrolo[2,3-c]pyridazin-3-yl]-6,7,8,9-tetrahydro-5H-benzo[7]annulen-7-yl]-3-oxa-6-azabicyclo[3.1.1]heptane] |
| < 100 | < 100 | Cn1ncnc1-c1ccc(-c2c[nH]c3ncc(-c4ccc5c(c4)CC[C@@H](N4C6COCC4C6)CC5)cc23)cc1 [Example 133, 6-[(7S)-2-{3-[4-(1-Methyl-1H-1,2,4-triazol-5-yl)phenyl]-1H-pyrrolo[2,3-b]pyridin-5-yl}-6,7,8,9-tetrahydro-5H-benzo[7]annulen-7-yl]-3-oxa-6-azabicyclo[3.1.1]heptane] |
| < 100 | 100 to 1000 | Cc1ccc(C(F)(F)F)nc1-c1ccc(-c2n[nH]c3ncc(-c4ccc5c(c4)CC[C@@H](N4C6COC[C@H]4C6)CC5)cc23)cc1 [Example 145, (1R)-6-[(7S)-2-(3-{4-[3-Methyl-6-(trifluoromethyl)pyridin-2-yl]phenyl}-1H-pyrazolo[3,4-b]pyridin-5-yl)-6,7,8,9-tetrahydro-5H-benzo[7]annulen-7-yl]-3-oxa-6-azabicyclo[3.1.1]heptane] |
| < 100 | < 100 | Cc1cccnc1-c1cnc(-c2n[nH]c3ncc(-c4ccc5c(c4)CC[C@@H](N4C6COCC4C6)CC5)cc23)cn1 [Example 193, 6-[(7S)-2-{3-[5-(3-Methylpyridin-2-yl)pyrazin-2-yl]-1H-pyrazolo[3,4-b]pyridin-5-yl}-6,7,8,9-tetrahydro-5H-benzo[7]annulen-7-yl]-3-oxa-6-azabicyclo[3.1.1]heptane] |
| < 100 | 100 to 1000 | Cc1ccc(C#N)c(-c2ccc(-c3c[nH]c4ncc(-c5ccc6c(c5)CC[C@@H](N5C7COCC5C7)CC6)cc34)cc2)n1 [Example 72, 6-Methyl-2-(4-{5-[(7S)-7-{3-oxa-6-azabicyclo[3.1.1]heptan-6-yl}-6,7,8,9-tetrahydro-5H-benzo[7]annulen-2-yl]-1H-pyrrolo[2,3-b]pyridin-3-yl}phenyl)pyridine-3-carbonitrile] |
| < 100 | < 100 | Cc1ccc(C)c(-c2ccc(-c3n[nH]c4ncc(-c5ccc6c(c5)CC[C@@](C)(N5CCC[C@H]5C)CC6)cc34)cc2)n1 [Example 136, 3,6-Dimethyl-2-(4-{5-[(7S)-7-methyl-7-[(2R)-2-methylpyrrolidin-1-yl]-6,7,8,9-tetrahydro-5H-benzo[7]annulen-2-yl]-1H-pyrazolo[3,4-b]pyridin-3-yl}phenyl)pyridine] |
